Assay results: patent US20080009500A1, “Alpha-helix mimetics and methods relating to the treatment of fibrotic disorders” (priority 2005, published 2008)

Tests used:
[1] = tested on: TCF/β-catenin transcription; assay: Bleomycin model in Bat-Gal transgenic mice, X-Gal staining of lung sections (TCF/catenin-driven beta-galactosidase read-out); assay type: in vivo
Experimental: (§1) Using this murine model of pulmonary fibrosis in transgenic Bat-Gal mice, ICG-001 (5 mg/Kg/day, administered via minipump) blocked >95% of bleomycin-induced TCF/β-catenin transcription.
These mice have a Beta-Galactosidase transgene driven by a TCF/Catenin driven promoter (i.e. a read out for activated Wnt/catenin signaling). The mice were given intratracheal saline or bleomycin and either treated with ICG-001 (5 mgs/Kg/day subcutaneously) or saline as vehicle control. The mice were sacrificed and the lungs sectioned and stained with X-Gal (blue color) A) intratracheal bleo+saline. B) intracheal bleo+ICG-001 C) saline +saline.
The dose was selected because ICG-001 reduces TCF/β-Catenin driven β-Galactosidase expression >95% at 5 mgs/Kg/day.

[2] = tested on: bleomycin induced fibrosis in C57/B16 mice; assay: Murine model of bleomycin induced pulmonary fibrosis, lung sections stained for collagen (trichrome), body weight, survival; assay type: in vivo
Experimental: Murine models of bleomycin induced fibrosis have been developed in order to study fibrotic disease progression.
as §1
There is an absence of airway epithelium in lower left compared to upper left (see arrow heads) and extensive collagen deposition (lower left). On the sixth day, either saline (upper right) or ICG-001 (5 mgs/Kg/day) was administered for 10 days after which the mice were sacrificed and sectioned. Of interest is the upper right (saline treatment) showing lack of normal airway epithelialization, extensive collagen deposition and intra-airway hypercellularity (fibroblasts and inflammatory influx).
The procedures were performed using the animal model as described in Example 2 (FIG. 15), and the sectioned lungs were stained for collagen.

S100A4 = assay: RT-PCR for S100A4 in bleomycin treated mice; assay type: in vivo; conditions: 5 mgs/Kg/day s.c.
Source text: (§2) FIGS. 16 and 17 show RT-PCR data for S100A4 (FIG. 16) and collagen1A2 (FIG. 17), which are increased in the bleomycin treated mice (treated with saline control).

IPF patient fibroblasts = assay: Western blots for S100A4 and E-Cadherin on whole cell lysates of cultured IPF fibroblasts; assay type: cell-based, human
Experimental: Western blots for S100A4 (also know as FSP-1 or fibroblast specific protein-1) and E-Cadherin were performed on whole cell lysates (FIG. 20).

Aquaporin 5 = Aquaporin 5 immunostaining of lung tissue in the bleomycin animal model; assay type: in vivo, mice; conditions: bleomycin and ICG-001 vs bleomycin alone
Experimental: The aquaporins are water channels expressed in a variety of cell types. Aquaporin 5 is involved in the transportation of water across the apical surface of the alveolar epithelium and the epithelia of the submucosal glands in the upper airway and nasopharynx. (Krane, C. M., P.N.A.S. 98:14192-4, 2001; Yang, F. J. Biol. Chem. 278:32173-80, 2003). Because aquaporin 5 is a marker of Type 1 (differentiated) lung epithelium, its expression was assayed in lung tissue treated with bleomycin (FIG. 22A), bleomycin and ICG-001 (FIG. 22B), and saline (FIG. 22C), using the animal model as described in Example 2 (FIG. 15), and immunostaining with an antibody specific for Aquaporin 5.

collagen1A2 = assay: RT-PCR for collagen1A2 in bleomycin treated mice; assay type: in vivo; conditions: 5 mgs/Kg/day s.c.
Source text: as §2

[3] = C57/B16 mice, bleomycin 5 days, then 5 mgs/Kg/day for 10 days
[4] = bleomycin and ICG-001 treatment
[5] = IPF patient fibroblasts, RPMI 1640+10% FBS, 2 days

In the case of O=C1[C@H](Cc2ccc(O)cc2)N2C(=O)CCN(C(=O)NCc3ccccc3)[C@H]2CN1Cc1cccc2ccccc12 [ICG-001], the “reduction of TCF/β-Catenin driven β-Galactosidase expression” value ([1]; 5 mgs/Kg/day) is reported as over 95%, the “bleomycin-induced TCF/β-catenin transcription blocked” value ([1]; transgenic Bat-Gal mice, 5 mg/Kg/day via minipump) is reported as over 95% and the mortality ([2]; 5 mg/Kg/day) is reported as “reduced mortality”. For the same molecule, the disease progression ([2]; 5 mg/Kg/day, judged by mortality, histopathology and endogenous gene expression) was “not only halted but reversed disease progression”, the “airway appearance in trichrome-stained lung sections” value [2, 3] was “essentially normal” and the body weight [2, 3] was “regained normal body weight”. For the same molecule, the “collagen levels in lung sections” value [2, 3] was “normal collagen levels”, the survival ([2]; C57/B16 mice, bleomycin 5 days, then 5 mgs/Kg/day for 10 days, untreated controls did not survive) was “survived” and the “alveolar fibrosis (lungs stained for collagen)” value [2, 4] was “prevented alveolar fibrosis”. The “interstitial fibrosis (lungs stained for collagen)” value [2, 4] was “prevented interstitial fibrosis”, the fibrosis ([2]; over the 25 days of treatment) was “reversed fibrosis” and the “S100A4 message (RT-PCR)” value (S100A4) was “reduced essentially to negative control”. For the same molecule, the “S100A4 expression (whole cell lysates)” value (IPF patient fibroblasts; ATCC IPF cells, RPMI1640+10% FBS, 2 days) was “decreased S100A4 expression”, the “E-cadherin expression at the mRNA level” value (IPF patient fibroblasts; IPF patient fibroblasts) was “also true at the mRNA level” and the “E-cadherin expression (Western blot, whole cell lysates)” value (IPF patient fibroblasts; [5]) was “increased E-cadherin expression”. The “S100A4 expression (Western blot, whole cell lysates)” value (IPF patient fibroblasts; [5]) was “decreased S100A4 expression”, the “aquaporin 5 expression (immunostaining)” value (Aquaporin 5) was “greatly increased” and the “collagen1A2 message (RT-PCR)” value (collagen1A2) was “reduced essentially to negative control”.
